US20150344457A1, “METHODS OF INHIBITING PRMT5” (EPIZYME, INC., priority 2012, published 2015)
Like-named read-outs stand apart in the source and are kept apart here.

What was measured:
[1] = system: Z-138 cells; assay: Z-138 Proliferation Assay (Cell Titer Glo, 5 days); type: cell-based; settings: Homo sapiens
Procedure, shortened: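 Exponentially growing Z-138 cells (10,000 cells/ml) in RPMI 1640 with 10% FBS are exposed to nine-point 3-fold dilutions (final top concentration 20 μM, 0.2% DMSO) for 5 days at 37° C. Viability is measured as ATP by CellTiter-Glo luminescence. The 50% inhibitory concentration comes from a 4-parameter fit.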

[2] = molecular target: T1, PRMT5/MEP50 (Homo sapiens, UniProt O14744); assay: PRMT5 Biochemical Assay (PRMT5/MEP50 enzyme assay on peptide substrate, 3H-SAM Flashplate); settings: read-out: Biochemical IC50
T1 construct: Expressed full-length human Flag-PRMT5/6His-MeP50 protein complex was purified; made in house; host or cells: Spodoptera frugiperda (SF9) insect cells, baculovirus (pDEST8)
T1 sequence (O14744 with tags, fused parts or gaps): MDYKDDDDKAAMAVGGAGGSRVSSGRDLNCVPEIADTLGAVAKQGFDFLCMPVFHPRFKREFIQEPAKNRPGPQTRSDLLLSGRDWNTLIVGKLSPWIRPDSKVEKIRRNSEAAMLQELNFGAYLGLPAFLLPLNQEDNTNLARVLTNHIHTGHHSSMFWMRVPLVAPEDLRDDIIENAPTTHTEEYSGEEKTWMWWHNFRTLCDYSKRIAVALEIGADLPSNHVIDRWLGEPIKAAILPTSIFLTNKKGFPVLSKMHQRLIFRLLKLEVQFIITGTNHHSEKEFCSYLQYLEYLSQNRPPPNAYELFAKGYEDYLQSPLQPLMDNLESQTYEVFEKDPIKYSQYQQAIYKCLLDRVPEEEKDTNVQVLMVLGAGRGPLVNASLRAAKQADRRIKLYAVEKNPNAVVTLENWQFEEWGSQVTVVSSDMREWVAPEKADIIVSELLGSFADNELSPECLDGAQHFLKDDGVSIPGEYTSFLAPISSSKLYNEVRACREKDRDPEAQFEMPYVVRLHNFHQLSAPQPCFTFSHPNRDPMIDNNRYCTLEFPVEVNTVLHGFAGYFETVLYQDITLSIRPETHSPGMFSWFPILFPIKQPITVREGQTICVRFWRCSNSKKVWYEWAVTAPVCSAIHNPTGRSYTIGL
T1 sequence (Q9BQA1 with tags, fused parts or gaps partner limits assumed): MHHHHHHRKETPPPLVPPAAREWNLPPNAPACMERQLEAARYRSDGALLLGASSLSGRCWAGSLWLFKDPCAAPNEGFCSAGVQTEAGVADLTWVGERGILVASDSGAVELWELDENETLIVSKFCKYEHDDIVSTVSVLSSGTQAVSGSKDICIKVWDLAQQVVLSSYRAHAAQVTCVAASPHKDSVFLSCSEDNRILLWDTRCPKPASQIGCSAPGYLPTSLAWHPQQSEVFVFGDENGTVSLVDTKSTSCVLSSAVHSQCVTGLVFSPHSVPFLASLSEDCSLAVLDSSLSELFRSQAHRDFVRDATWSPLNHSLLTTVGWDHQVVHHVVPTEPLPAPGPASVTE

[3] = 120 h, Table A-2, 5 days, top concentration 20 μM
[4] = Table A-2, PRMT5/MEP50 4 nM, 3H-SAM 75 nM, peptide 40 nM

SMILES	EC50 ([1]; Table D-2)	IC50 ([2]; Table D-2)	EC50 [1, 3]	IC50 [2, 4]
OC(COc1cccc(-c2ccc(C(F)(F)F)cc2Cl)c1)CN1CCc2ccccc2C1 (stereo not shown) [Compound D127]	> 20000 nM	101 to 1000 nM		
CN1CCN(c2ccccc2OCC(=O)NC[C@H](O)CN2CCc3ccccc3C2)CC1 [Compound A84]			1000 to 10000 nM	< 100 nM
Cn1ccc(C(=O)Nc2cccc(OCC(O)CN3CCc4ccccc4C3)c2)n1 (stereo not shown) [Compound D162]	> 20000 nM	1000 to 10000 nM		
OC(COc1cccc(-c2ccccc2Oc2ccccc2)c1)CN1CCc2ccccc2C1 (stereo not shown) [Compound D167]	> 20000 nM	101 to 1000 nM		
CS(=O)(=O)c1ccccc1-c1cccc(OCC(O)CN2CCc3ccccc3C2)c1 (stereo not shown) [Compound D131]	> 20000 nM	101 to 1000 nM		
CN(C)c1ccc(-c2cccc(OCC(O)CN3CCc4ccccc4C3)c2)cc1 (stereo not shown) [Compound D151]	> 20000 nM	101 to 1000 nM		
Cn1cnc(C(=O)Nc2cccc(OCC(O)CN3CCc4ccccc4C3)c2)c1 (stereo not shown) [Compound D183]	> 20000 nM	1000 to 10000 nM		
O=C(c1cccc(-c2cccc(OCC(O)CN3CCc4ccccc4C3)c2)c1)N1CCCC1 (stereo not shown) [Compound D185]	10000 to 40000 nM	101 to 1000 nM		
Cc1cn(C)c2cc(-c3cccc(OCC(O)CN4CCc5ccccc5C4)c3)ccc12 (stereo not shown) [Compound D187]	> 20000 nM	101 to 1000 nM		
O=C(COc1ccccc1OCCN1CCOCC1)NC[C@H](O)CN1CCc2ccccc2C1 [Compound A86]			10000 to 50000 nM	< 100 nM
OC(COc1cccc(-c2ccc3ncoc3c2)c1)CN1CCc2ccccc2C1 (stereo not shown) [Compound D188]	10000 to 40000 nM	101 to 1000 nM		
O=C1NCc2ccc(-c3cccc(OCC(O)CN4CCc5ccccc5C4)c3)cc21 (stereo not shown) [Compound D148]	10000 to 40000 nM	101 to 1000 nM		
CC(C)(C)OCc1cccc(-c2cccc(OCC(O)CN3CCc4ccccc4C3)c2)c1 (stereo not shown) [Compound D150]	> 20000 nM	101 to 1000 nM		
CS(=O)(=O)c1cccc(-c2cccc(OCC(O)CN3CCc4ccccc4C3)c2)c1 (stereo not shown) [Compound D130]	> 20000 nM	101 to 1000 nM		
